Data: patent US8642609B2, “Modulators of ATP-binding cassette transporters” (Vertex Pharmaceuticals Incorporated, priority 2003, dated 2014)

Molecular target: T1, ΔF508-CFTR (Homo sapiens, UniProt P13569, DEL508-508)
T1 construct: expressed in transfected cells
Assay: Membrane potential optical assay (FRET/VIPR), identification of correction compounds
Format: cell-based
Procedure, shortened: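 Corrector screen: FRET voltage-sensor dyes (CC2-DMPE donor, DiSBAC2(3)) report Cl^− efflux-driven depolarization after 10 μM forskolin and 20 μM genistein in Cl^−-free medium. Beforehand, ΔF508-CFTR NIH3T3 fibroblasts received compound for 16 hrs at 37° C; temperature-corrected cells (27° C) served as positive control.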

T1 sequence (P13569 with tags, fused parts or gaps DEL508-508): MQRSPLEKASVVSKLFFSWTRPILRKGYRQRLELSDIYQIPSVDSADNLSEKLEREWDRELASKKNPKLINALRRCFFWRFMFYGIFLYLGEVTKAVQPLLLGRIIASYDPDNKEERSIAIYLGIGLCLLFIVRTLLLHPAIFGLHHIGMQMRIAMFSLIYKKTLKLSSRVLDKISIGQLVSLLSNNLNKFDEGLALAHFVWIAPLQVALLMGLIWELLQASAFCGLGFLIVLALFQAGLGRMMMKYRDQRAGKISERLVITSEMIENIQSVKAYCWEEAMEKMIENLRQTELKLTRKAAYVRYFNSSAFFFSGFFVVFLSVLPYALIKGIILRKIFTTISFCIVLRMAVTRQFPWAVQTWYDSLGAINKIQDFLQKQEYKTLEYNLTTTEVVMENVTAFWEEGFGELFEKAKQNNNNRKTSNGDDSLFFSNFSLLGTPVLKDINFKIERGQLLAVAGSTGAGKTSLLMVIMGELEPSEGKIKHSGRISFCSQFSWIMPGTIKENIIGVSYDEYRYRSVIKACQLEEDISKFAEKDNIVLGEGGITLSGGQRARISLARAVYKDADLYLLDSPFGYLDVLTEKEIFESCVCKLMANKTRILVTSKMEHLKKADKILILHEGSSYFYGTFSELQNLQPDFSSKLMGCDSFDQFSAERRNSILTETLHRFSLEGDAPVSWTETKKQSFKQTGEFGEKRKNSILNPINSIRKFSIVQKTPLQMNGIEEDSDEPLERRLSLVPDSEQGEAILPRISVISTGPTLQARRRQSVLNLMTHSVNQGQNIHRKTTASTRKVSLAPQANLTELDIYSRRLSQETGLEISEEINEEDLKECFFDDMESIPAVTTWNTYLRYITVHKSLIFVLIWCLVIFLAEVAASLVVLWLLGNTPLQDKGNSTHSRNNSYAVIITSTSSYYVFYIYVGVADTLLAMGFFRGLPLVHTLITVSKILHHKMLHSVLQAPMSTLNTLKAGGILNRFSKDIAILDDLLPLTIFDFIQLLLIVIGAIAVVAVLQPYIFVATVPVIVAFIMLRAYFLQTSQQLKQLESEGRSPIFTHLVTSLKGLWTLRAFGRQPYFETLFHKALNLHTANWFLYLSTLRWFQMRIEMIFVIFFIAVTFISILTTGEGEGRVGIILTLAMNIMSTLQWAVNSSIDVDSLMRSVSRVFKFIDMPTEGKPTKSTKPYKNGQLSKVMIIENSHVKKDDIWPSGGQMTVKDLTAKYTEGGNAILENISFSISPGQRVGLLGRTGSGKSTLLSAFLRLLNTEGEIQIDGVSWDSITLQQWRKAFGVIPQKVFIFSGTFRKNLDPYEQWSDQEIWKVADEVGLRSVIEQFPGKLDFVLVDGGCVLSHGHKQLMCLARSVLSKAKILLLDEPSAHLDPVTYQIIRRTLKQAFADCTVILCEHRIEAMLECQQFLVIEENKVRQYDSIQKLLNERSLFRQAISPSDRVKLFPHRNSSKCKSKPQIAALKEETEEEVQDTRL

Row | Structure (SMILES) | EC50 [µM] | Emax (relative efficacy) [%] | % Efficacy (relative efficacy)
1 | CCSc1ccc(S(=O)(=O)N2CCN(C(C)c3nc4ccccc4c(=O)n3C)CC2)cc1 (stereo not drawn) [compound 351] | 25 to 60 | < 25 | 
2 | COc1ccc(S(=O)(=O)N2CCN(C(C)c3ncc(C(=O)O)c(N4CCCCC4)n3)CC2)cc1 (stereo not drawn) [compound 355] | 25 to 60 | < 25 | 
3 | COc1ccc(S(=O)(=O)N2CCN(C(C)c3ncc(C(N)=O)c(N4CCCCC4)n3)CC2)cc1 (stereo not drawn) [compound 356] | 25 to 60 | 25 to 100 | 
4 | CNC(=O)c1cnc(C(C)N2CCN(S(=O)(=O)c3ccc(OC)cc3)CC2)nc1N1CCCCC1 (stereo not drawn) [compound 357] | 25 to 60 | 25 to 100 | 
5 | COc1ccc(S(=O)(=O)N2CCN(C(C)c3ncc(C(=O)N(C)C)c(N4CCCCC4)n3)CC2)cc1 (stereo not drawn) [compound 358] | 25 to 60 | 25 to 100 | 
6 | COc1ccc(S(=O)(=O)N2CCN(C(C)c3ncc(CO)c(N4CCCCC4)n3)CC2)cc1 (stereo not drawn) [compound 359] | 25 to 60 | 25 to 100 | 
7 | COc1ccc(S(=O)(=O)N2CCN(C(C)c3nccc(N4CCCCC4)n3)CC2)cc1 (stereo not drawn) [compound 360] | 25 to 60 | 25 to 100 | 
8 | COc1ccc(S(=O)(=O)N2CCN(C(C)c3nc(N4CCC(C(N)=O)CC4)c4ccccc4n3)CC2)cc1 (stereo not drawn) [compound 364] | 25 to 60 | 25 to 100 | 
9 | COc1ccc(S(=O)(=O)N2CCN(C(C)c3nc(N4CCN(C(C)=O)CC4)c4ccccc4n3)CC2)cc1 (stereo not drawn) [compound 369] | 25 to 60 | 25 to 100 | 
10 | COc1ccc(S(=O)(=O)N2CCN(C(C)c3nc(N4CCC(C(=O)O)CC4)c4ccccc4n3)CC2)cc1 (stereo not drawn) [compound 370] | 25 to 60 | < 25 | 
11 | COc1ccc(S(=O)(=O)N2CCN(C(C)c3nc(N4CCC(C)CC4)c4cc(F)ccc4n3)CC2)cc1 (stereo not drawn) [compound 372] | 10 to 25 | > 100 | 
12 | COc1ccc(S(=O)(=O)N2CCN(C(C)c3nc(NC4CCCCC4)c4cc(F)ccc4n3)CC2)cc1 (stereo not drawn) [compound 373] | 10 to 25 | 25 to 100 | 
13 | COc1ccc(S(=O)(=O)N2CCN(C(C)c3nc4ccc(F)cc4c(=O)[nH]3)CC2)cc1 (stereo not drawn) [compound 377] | 25 to 60 | 25 to 100 | 
14 | COc1ccc(S(=O)(=O)N2CCN(C(C)c3ncc(Br)c(=O)[nH]3)CC2)cc1 (stereo not drawn) [compound 378] | 25 to 60 | < 25 | 
15 | COc1ccc(S(=O)(=O)N2CCN(C(C)c3nccc(OC4CCCC4)n3)CC2)cc1 (stereo not drawn) [compound 382] | 10 to 25 | 25 to 100 | 
16 | COc1ccc(S(=O)(=O)N2CCN(Cc3nc4ccccc4c(=O)[nH]3)CC2)cc1 [compound 383] | 25 to 60 | < 25 | 
17 | COc1ccc(S(=O)(=O)N2CCN(Cc3nc(N4CCCCC4)c4ccccc4n3)CC2)cc1 [compound 384] | 10 to 25 | > 100 | 
18 | COc1ccc(S(=O)(=O)N2CCN(C(C)c3nc(N4CC=CC4)c4ccccc4n3)CC2)cc1 (stereo not drawn) [compound 391] | 10 to 25 | > 100 | 
19 | COc1ccc(S(=O)(=O)N2CCN(C(C)c3nc(N4CCSC4)c4ccccc4n3)CC2)cc1 (stereo not drawn) [compound 393] | 10 to 25 | > 100 | 
20 | COc1ccc(S(=O)(=O)N2CCN(C(C)c3nc(N4CC[C@@H](NC(C)=O)C4)c4ccccc4n3)CC2)cc1 (stereo partly drawn) [compound 394] | 25 to 60 | 25 to 100 | 
21 | COc1ccc(S(=O)(=O)N2CCN(C(C)c3nc(N(C)CC4OCCO4)c4ccccc4n3)CC2)cc1 (stereo not drawn) [compound 395] | 10 to 25 | 25 to 100 | 
22 | COc1ccc(S(=O)(=O)N2CCN(C(C)c3nc(OC4CCCCC4)c4nccnc4n3)CC2)cc1 (stereo not drawn) [compound 396] | 10 to 25 | > 100 | 
23 | COc1ccc(S(=O)(=O)N2CCN(C(C)c3nc(OC4CCCC4)c4ccccc4n3)CC2)cc1 (stereo not drawn) [compound 397] | 10 to 25 |  | ++ (“++” means between 25% to 100%)
24 | COc1ccc(S(=O)(=O)N2CCN(C(=O)c3nc(N4CCCCC4)c4ccccc4n3)CC2)cc1 [compound 402] | 25 to 60 | < 25 | 
25 | COc1ccc(S(=O)(=O)N2CCC(C(C)c3nc4ccccc4c(=O)[nH]3)CC2)cc1 (stereo not drawn) [compound 405] | 10 to 25 | 25 to 100 | 

More lines, now with the values ahead:

Row | EC50 [µM] | Emax (relative efficacy) [%] | % Efficacy (relative efficacy) | Structure (SMILES)
26 | < 10 | 25 to 100 |  | CC(c1nc2ccccc2c(=O)n1C)N1CCN(S(=O)(=O)c2ccc(SC(F)(F)F)cc2)CC1 (stereo not drawn) [compound 352]
27 | < 10 | 25 to 100 |  | CCOC(=O)c1cnc(C(C)N2CCN(S(=O)(=O)c3ccc(OC)cc3)CC2)nc1N1CCCCC1 (stereo not drawn) [compound 353]
28 | 10 to 25 | 25 to 100 |  | C#Cc1ccc(S(=O)(=O)N2CCN(C(C)c3nc4ccccc4c(=O)n3C)CC2)cc1 (stereo not drawn) [compound 354]
29 | < 10 | > 100 |  | COc1ccc(S(=O)(=O)N2CCN(C(C)c3nc(N4CC5CCC4C5)c4ccccc4n3)CC2)cc1 (stereo not drawn) [compound 361]
30 | < 10 | > 100 |  | CCOC(=O)c1cnc(C(C)N2CCN(S(=O)(=O)c3ccc(OC)cc3)CC2)nc1OC1CCCC1 (stereo not drawn) [compound 362]
31 | 10 to 25 | > 100 |  | COc1ccc(S(=O)(=O)N2CCN(C(C)c3nc(N4CCC(CCO)CC4)c4ccccc4n3)CC2)cc1 (stereo not drawn) [compound 363]
32 | < 10 | > 100 |  | CCCC1CCN(c2nc(C(C)N3CCN(S(=O)(=O)c4ccc(OC)cc4)CC3)nc3ccccc23)CC1 (stereo not drawn) [compound 365]
33 | < 10 | 25 to 100 |  | COc1ccc(S(=O)(=O)N2CCN(C(C)c3nc(Nc4ccccc4)c4ccccc4n3)CC2)cc1 (stereo not drawn) [compound 366]
34 | < 10 | 25 to 100 |  | COc1ccc(S(=O)(=O)N2CCN(C(C)c3nc(NCc4ccccc4)c4ccccc4n3)CC2)cc1 (stereo not drawn) [compound 367]
35 | < 10 | > 100 |  | COc1ccc(S(=O)(=O)N2CCN(C(C)c3nc(N(C)Cc4ccccc4)c4ccccc4n3)CC2)cc1 (stereo not drawn) [compound 368]
36 | < 10 | > 100 |  | COc1ccc(S(=O)(=O)N2CCN(C(C)c3nc(N4CCCCC4)c4cc(F)ccc4n3)CC2)cc1 (stereo not drawn) [compound 371]
37 | < 10 | 25 to 100 |  | COc1ccc(S(=O)(=O)N2CCN(C(C)c3nc(OC4CCCCC4)c4cc(F)ccc4n3)CC2)cc1 (stereo not drawn) [compound 374]
38 | < 10 | > 100 |  | COc1ccc(S(=O)(=O)N2CCN(C(C)c3nc(OC4CCCC4)c4cc(F)ccc4n3)CC2)cc1 (stereo not drawn) [compound 375]
39 | < 10 | 25 to 100 |  | COc1ccc(S(=O)(=O)N2CCN(C(C)c3ncc(-c4ccccc4)c(N4CCCCC4)n3)CC2)cc1 (stereo not drawn) [compound 376]
40 | < 10 | > 100 |  | C[C@H](c1nc(N2CCCCC2)c2ccccc2n1)N1CCN(S(=O)(=O)c2ccc(Cl)cc2)CC1 [compound 379]
41 | < 10 | > 100 |  | C[C@@H](c1nc(N2CCCCC2)c2ccccc2n1)N1CCN(S(=O)(=O)c2ccc(Cl)cc2)CC1 [compound 380]
42 | < 10 | > 100 |  | COc1ccc(S(=O)(=O)N2CCN(C(C)c3ncc(Br)c(OC4CCCC4)n3)CC2)cc1 (stereo not drawn) [compound 381]
43 | < 10 | > 100 |  | COc1ccc(S(=O)(=O)N2CCN(Cc3nc(OC4CCCCC4)c4ccccc4n3)CC2)cc1 [compound 385]
44 | < 10 | > 100 |  | COc1ccc(S(=O)(=O)N2CCN(Cc3nc(OC4CCCC4)c4ccccc4n3)CC2)cc1 [compound 386]
45 | < 10 | > 100 |  | COc1ccc(S(=O)(=O)N2CCN(C3(c4nc(N5CCCCC5)c5ccccc5n4)CC3)CC2)cc1 [compound 387]
46 | < 10 | > 100 |  | COc1ccc(S(=O)(=O)N2CCN(C(C)c3nc(N4CCCc5ccccc54)c4ccccc4n3)CC2)cc1 (stereo not drawn) [compound 388]
47 | < 10 | > 100 |  | COc1ccc(S(=O)(=O)N2CCN(C(C)c3nc(N4CCC(Cc5ccccc5)CC4)c4ccccc4n3)CC2)cc1 (stereo not drawn) [compound 389]
48 | < 10 | > 100 |  | COc1ccc(S(=O)(=O)N2CCN(C(C)c3nc(N4CCN(c5ccccc5)CC4)c4ccccc4n3)CC2)cc1 (stereo not drawn) [compound 390]
49 | < 10 | > 100 |  | COc1ccc(S(=O)(=O)N2CCN(C(C)c3nc(N4CC=CCC4)c4ccccc4n3)CC2)cc1 (stereo not drawn) [compound 392]
50 | < 10 | > 100 |  | COc1ccc(S(=O)(=O)N2CCN(C(C)c3nc(OC4CCC4)c4ccccc4n3)CC2)cc1 (stereo not drawn) [compound 398]
51 | < 10 | 25 to 100 |  | COc1ccc(S(=O)(=O)N2CCN(C(C)c3nc(OC4CCC(C)CC4)c4ccccc4n3)CC2)cc1 (stereo not drawn) [compound 399]
52 | < 10 | > 100 |  | COc1ccc(S(=O)(=O)N2CCN(C(C)c3nc(OC4CCC5CC4C5)c4ccccc4n3)CC2)cc1 (stereo not drawn) [compound 400]
53 | < 10 | > 100 |  | COc1ccc(S(=O)(=O)N2CCC(C(C)c3nc(OC4CCCC4)c4ccccc4n3)CC2)cc1 (stereo not drawn) [compound 403]
54 | < 10 | > 100 |  | COc1ccc(S(=O)(=O)N2CCC(C(C)c3nc(OC4CCCCC4)c4ccccc4n3)CC2)cc1 (stereo not drawn) [compound 404]
